# Measurements taken from patent US8927717B1, “Thiochromeno[2,3-c]quinolin-12-one derivatives, preparation method and application thereof” (National Defense Medical Center, priority 2014, dated 2015).
# Assays:
# Type in all cases: cell-based
# MDA-MB-486 = system: MDA-MB-486
# SK-MEL-28 = system: SK-MEL-28
# SN12C = system: SN12C
# PC-3 = system: PC-3
# 786-0 = system: 786-0
# OVCAR-5 = system: OVCAR-5
# COLO 205 = system: COLO 205
# MCF7 = system: MCF7
# UACC-62 = system: UACC-62
# SNB-75 = system: SNB-75
# SR = system: SR
# NCI-H460 = system: NCI-H460
# RXF 393 = system: RXF 393
# HT29 = system: HT29
# BT-549 = system: BT-549
# SF-295 = system: SF-295
# HCT-15 = system: HCT-15
# NCI-H23 = conditions: Non-small cell lung cancer; 10^−5 molar; 48 hours; SRB
# K-562 = system: K-562
# [1] = Breast cancer, 10^−5 molar, 48 hours, SRB
# [2] = Homo sapiens, SK-MEL-28, five dose
# [3] = Melanoma, 10^−5 molar, 48 hours, SRB
# [4] = Renal cancer, 10^−5 molar, 48 hours, SRB
# [5] = Colon cancer, 10^−5 molar, 48 hours, SRB
# [6] = Homo sapiens, COLO 205, five dose
# [7] = CNS cancer, 10^−5 molar, 48 hours, SRB
# [8] = Homo sapiens, SNB-75, five dose
# [9] = Leukemia, 10^−5 molar, 48 hours, SRB
# [10] = Homo sapiens, NCI-H460, five dose
# [11] = Homo sapiens, HT-29, HT29, five dose
# [12] = Homo sapiens, SF-295, five dose
# [13] = Homo sapiens, HCT-15, five dose
structure (smiles),measurement,setting,value
"CN(C)CCNc1nc2ccccc2c2c(=O)c3cc(Cl)ccc3sc12 [Compound N7, 10-Chloro-6-((2-(dimethylamino)ethyl)amino)-12H-thiochromeno[2,3-c]quinolin-12-one]",GI50,"MDA-MB-486; 60 cell, MDA-MB-486, five dose",1.47 µM
same,CC50,"MDA-MB-486; 60 cell, MDA-MB-486, five dose, read-out: LC50 (the source's name)",7.34 µM
same,Growth percent MDA-MB-486,MDA-MB-486; [1],12.81%
same,TGI,"MDA-MB-486; MDA-MB-486, five dose",3.28 µM
same,GI50,SK-MEL-28; [2],1.81 µM
same,LC50,SK-MEL-28; [2],5.89 µM
same,Growth percent SK-MEL-28,SK-MEL-28; [3],−76.79%
same,TGI,"SK-MEL-28; SK-MEL-28, five dose",3.27 µM
same,GI50,"SN12C; Homo sapiens, SN12C, five dose",1.59 µM
same,CC50,"SN12C; Homo sapiens, SN12C, five dose, read-out: LC50 (the source's name)",6.12 µM
same,Growth percent SN12C,SN12C; [4],48.67%
same,TGI,"SN12C; SN12C, five dose",3.12 µM
same,GI50,"PC-3; Homo sapiens, PC-3, five dose",1.47 µM
same,CC50,"PC-3; Homo sapiens, PC-3, five dose, read-out: LC50 (the source's name)",5.74 µM
same,TGI,"PC-3; PC-3, five dose",2.90 µM
same,Growth percent PC-3,"PC-3; Prostate cancer, 10^−5 molar, 48 hours, SRB",33.32%
same,TGI,"786-0; 786-0, five dose",3.45 µM
same,GI50,"786-0; Homo sapiens, 786-0, five dose",1.84 µM
same,CC50,"786-0; Homo sapiens, 786-0, five dose, read-out: LC50 (the source's name)",6.46 µM
same,Growth percent 786-0,786-0; [4],43.11%
same,GI50,"OVCAR-5; Homo sapiens, OVCAR-5, five dose",1.45 µM
same,CC50,"OVCAR-5; Homo sapiens, OVCAR-5, five dose, read-out: LC50 (the source's name)",5.83 µM
same,TGI,"OVCAR-5; OVCAR-5, five dose",2.91 µM
same,Growth percent OVCAR-5,"OVCAR-5; Ovarian cancer, 10^−5 molar, 48 hours, SRB",24.27%
same,TGI,"COLO 205; COLO 205, five dose",3.17 µM
same,Growth percent COLO 205,COLO 205; [5],−82.85%
same,GI50,COLO 205; [6],1.66 µM
same,LC50,COLO 205; [6],6.05 µM
same,Growth percent MCF7 (Table 2: MCF),MCF7; [1],−85.41%
same,GI50,"MCF7; Homo sapiens, MCF7, five dose",1.23 µM
same,CC50,"MCF7; Homo sapiens, MCF7, five dose, read-out: LC50 (the source's name)",5.71 µM
same,TGI,"MCF7; MCF7, five dose",2.66 µM
same,GI50,"UACC-62; Homo sapiens, UACC-62, five dose",1.7 µM
same,CC50,"UACC-62; Homo sapiens, UACC-62, five dose, read-out: LC50 (the source's name)",5.88 µM
same,Growth percent UACC-62,UACC-62; [3],−76.58%
same,TGI,"UACC-62; UACC-62, five dose",3.16 µM
same,Growth percent SNB-75,SNB-75; [7],33.36%
same,GI50,SNB-75; [8],1.28 µM
same,LC50,SNB-75; [8],12.1 µM
same,TGI,"SNB-75; SNB-75, five dose",3.69 µM
same,GI50,"SR; Homo sapiens, SR, five dose",1.7 µM
same,LC50 (50% lethal concentration),"SR; Homo sapiens, SR, five dose",8.14 µM
same,Growth percent SR,SR; [9],−34.76%
same,TGI,"SR; SR, five dose",3.73 µM
same,GI50,NCI-H460; [10],1.76 µM
same,LC50,NCI-H460; [10],6.5 µM
same,TGI,"NCI-H460; NCI-H460, five dose",3.38 µM
same,Growth percent NCI-H460,"NCI-H460; Non-small cell lung cancer, 10^−5 molar, 48 hours, SRB",−71.14%
same,GI50,"RXF 393; Homo sapiens, RXF 393, five dose",1.6 µM
same,CC50,"RXF 393; Homo sapiens, RXF 393, five dose, read-out: LC50 (the source's name)",7.29 µM
same,TGI,"RXF 393; RXF 393, five dose",3.41 µM
same,Growth percent RXF 393,RXF 393; [4],−15.29%
same,Growth percent HT29,HT29; [5],−84.24%
same,TGI,"HT29; HT29, five dose",3.36 µM
same,GI50,HT29; [11],1.65 µM
same,LC50 (concentration killing 50% of cells),HT29; [11],6.88 µM
same,TGI,"BT-549; BT-549, five dose",2.27 µM
same,Growth percent BT-549,BT-549; [1],91.29%
same,GI50,"BT-549; Homo sapiens, BT-549, five dose",8.91 µM
same,CC50,"BT-549; Homo sapiens, BT-549, five dose, read-out: LC50 (the source's name)",5.33 µM
same,Growth percent SF-295,SF-295; [7],−32.59%
same,GI50,SF-295; [12],1.73 µM
same,LC50,SF-295; [12],5.98 µM
same,TGI,"SF-295; SF-295, five dose",3.21 µM
same,Growth percent HCT-15,HCT-15; [5],−30.05%
same,TGI,"HCT-15; HCT-15, five dose",3.14 µM
same,GI50,HCT-15; [13],1.59 µM
same,LC50,HCT-15; [13],6.21 µM
same,Growth percent NCI-H23,NCI-H23,72.59%
same,GI50,"K-562; Homo sapiens, K562, K-562, five dose",1.33 µM
same,CC50,"K-562; Homo sapiens, K562, K-562, five dose, read-out: LC50 (the source's name)",6.74 µM
same,TGI,"K-562; K-562, five dose",3.00 µM
same,Growth percent K-562,K-562; [9],−58.60%
